Measurements published in US10829493B2, “Compositions and methods for treating KIT- and PDGFRA-mediated diseases” (Blueprint Medicines Corporation, priority 2019, dated 2020).

Tests used:
KIT D816V [1] = molecular target: KIT D816V (Homo sapiens (Human), UniProt P10721, D816V/V560G); assay: HMC1.2 autophosphorylation assay (phospho-Y719 KIT AlphaLISA); format: cell-based; conditions: HMC1.2 cell line, KIT autophosphorylation at tyrosine 719, 90 minutes; read-out: KIT (P-KIT HMC1.2 (nM))
Protocol: 10,000 HMC1.2 cells were incubated in 22 μL culture media (phenol-red free IMDM, no serum) in each well of a 384-well plate and serum starved overnight in a tissue culture incubator (5% CO2, 37° C.). […] 10 μL of 100 μg/mL streptavidin donor beads (Perkin Elmer) were added to each well, blocked from light with solid black adhesive and shaken at 300 rpm at room temperature for 2 hours. Fluorescence signal was obtained on Envision (Perkin Elmer) by AlphaScreen 384 well HTS protocol.

PDGFRα D842V = PDGFRα D842V (Homo sapiens (Human), UniProt P16234, D842V); assay: PDGFRα D842V biochemical enzymatic activity assay (EZReader 2 mobility shift); conditions: at APPKM for ATP, 25 μM ATP, 90 minutes
Chain of PDGFRα D842V (P16234 24-1089 D842V): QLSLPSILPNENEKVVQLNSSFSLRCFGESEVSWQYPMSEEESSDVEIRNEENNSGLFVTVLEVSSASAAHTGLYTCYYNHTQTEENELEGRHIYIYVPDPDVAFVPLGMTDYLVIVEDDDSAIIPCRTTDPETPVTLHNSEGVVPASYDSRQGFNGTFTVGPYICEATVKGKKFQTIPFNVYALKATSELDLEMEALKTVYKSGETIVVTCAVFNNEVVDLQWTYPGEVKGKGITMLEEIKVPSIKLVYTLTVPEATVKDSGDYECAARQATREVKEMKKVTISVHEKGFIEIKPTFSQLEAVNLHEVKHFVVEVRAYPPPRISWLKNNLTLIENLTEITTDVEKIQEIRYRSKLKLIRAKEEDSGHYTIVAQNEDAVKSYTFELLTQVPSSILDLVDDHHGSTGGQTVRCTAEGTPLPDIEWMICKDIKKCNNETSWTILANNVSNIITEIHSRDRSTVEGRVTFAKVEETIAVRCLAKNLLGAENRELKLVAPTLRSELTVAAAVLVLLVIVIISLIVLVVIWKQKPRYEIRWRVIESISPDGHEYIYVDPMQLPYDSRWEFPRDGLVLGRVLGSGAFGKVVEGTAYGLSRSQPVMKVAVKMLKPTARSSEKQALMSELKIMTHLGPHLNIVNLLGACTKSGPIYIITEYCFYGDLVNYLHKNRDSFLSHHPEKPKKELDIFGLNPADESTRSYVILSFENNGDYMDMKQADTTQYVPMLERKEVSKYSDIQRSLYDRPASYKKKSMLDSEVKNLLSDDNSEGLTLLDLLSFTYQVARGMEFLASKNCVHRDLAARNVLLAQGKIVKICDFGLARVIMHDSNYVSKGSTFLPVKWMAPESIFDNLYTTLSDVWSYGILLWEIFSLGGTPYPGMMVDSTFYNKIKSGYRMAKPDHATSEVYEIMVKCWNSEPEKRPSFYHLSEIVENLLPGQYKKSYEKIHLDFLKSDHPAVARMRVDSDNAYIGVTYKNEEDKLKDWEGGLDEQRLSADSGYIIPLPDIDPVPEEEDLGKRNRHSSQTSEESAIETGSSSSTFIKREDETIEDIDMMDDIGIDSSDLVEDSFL
Source text: (§1) PDGFRα and KIT enzymatic activity was monitored using the Perkin Elmer electrophoretic mobility shift technology platform, the EZReader 2.
(§2) Within the linear, steady-state phase of the kinase enzymatic reaction, the mixed pool of phosphorylated (product) and non-phosphorylated (substrate) peptides was passed through the microfluidic system of the PerkinElmer EZ Reader 2, under an applied electric potential difference. The presence of the phosphate group on the product peptide provided a difference in mass and charge between that of the substrate peptide, resulting in a separation of the substrate and product pools in the sample (Perrin et al., Expert Opin Drug Discovery 2010 Jan. 5(1):51-63).
(§3) As the product and substrate peptide mixture passes the lasers within the instrument, these pools are detected (λex=488 nm, λem=568 nm) and resolved as separate peaks. The ratio between these peaks reflects the activity of the compound at that concentration, in that well, under those conditions.
Inhibition of KIT (D816V) PDGFRα (D842V) Mutant Biochemical Enzymatic Activity
(§4) All test articles were dissolved in 100% DMSO at a stock concentration of 10 mM. A 100×, 10-point, 4-fold serial dilution of all test compounds was created in 100% DMSO, starting at a relevant concentration, usually 1 mM. A volume of 0.130 μL of each concentration was transferred to the relevant well of a 384-well assay plate (Greiner 781 201) using a TTPLabtech Mosquito nano-liter dispenser. Using the Multidrop, the remaining constituents of the reaction were then added to the 0.130 μL of compound as follows:
The reaction was stopped by the addition of 70 μl of Stop buffer (100 mM HEPES pH 7.5, 0.015% Brij 35, 35 mM EDTA and 0.2% of Coating Reagent 3, Caliper Lifesciences). The plate was read on a Caliper EZReader 2.

wt KIT kinase = wt KIT kinase (Homo sapiens (Human), UniProt P10721); assay: Wild-type KIT binding assay (Kd determination, phage-tagged kinase, qPCR)
Chain of wt KIT kinase (P10721 26-976): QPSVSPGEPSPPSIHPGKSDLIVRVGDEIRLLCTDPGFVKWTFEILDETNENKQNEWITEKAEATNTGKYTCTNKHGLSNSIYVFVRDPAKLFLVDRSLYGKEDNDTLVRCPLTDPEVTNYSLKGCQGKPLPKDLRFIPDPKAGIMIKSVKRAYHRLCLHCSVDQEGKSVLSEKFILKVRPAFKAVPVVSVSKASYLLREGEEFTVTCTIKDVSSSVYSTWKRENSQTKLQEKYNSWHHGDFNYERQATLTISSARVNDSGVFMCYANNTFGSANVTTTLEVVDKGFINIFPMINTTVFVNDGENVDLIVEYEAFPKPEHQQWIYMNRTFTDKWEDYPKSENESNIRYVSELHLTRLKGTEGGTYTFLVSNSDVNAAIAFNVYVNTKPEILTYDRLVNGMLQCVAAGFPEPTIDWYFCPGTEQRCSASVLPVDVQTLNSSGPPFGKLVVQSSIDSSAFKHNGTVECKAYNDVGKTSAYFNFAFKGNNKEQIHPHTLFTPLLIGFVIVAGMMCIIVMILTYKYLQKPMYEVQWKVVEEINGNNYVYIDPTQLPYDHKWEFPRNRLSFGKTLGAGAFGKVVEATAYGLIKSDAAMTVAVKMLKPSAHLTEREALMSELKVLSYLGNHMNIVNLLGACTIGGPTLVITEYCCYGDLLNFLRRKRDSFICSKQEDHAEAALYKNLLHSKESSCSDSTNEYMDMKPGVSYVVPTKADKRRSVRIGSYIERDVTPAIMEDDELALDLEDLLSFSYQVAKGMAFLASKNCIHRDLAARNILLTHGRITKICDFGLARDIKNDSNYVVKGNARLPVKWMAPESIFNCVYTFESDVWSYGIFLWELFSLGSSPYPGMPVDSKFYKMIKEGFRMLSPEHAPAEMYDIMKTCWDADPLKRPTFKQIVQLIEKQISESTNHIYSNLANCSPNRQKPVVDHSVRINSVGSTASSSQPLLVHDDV
Protocol: Kd Determinations. For most assays, including wt KIT kinase, kinase-tagged T7 phage strains were prepared in an E. coli host derived from the BL21 strain. E. coli were grown to log-phase and infected with T7 phage and incubated with shaking at 32° C. until lysis. […] The liganded beads were blocked with excess biotin and washed with blocking buffer (SeaBlock (Pierce), 1% BSA, 0.05% Tween 20, 1 mM DTT) to remove unbound ligand and to reduce non-specific binding. […] Test compounds were prepared as 111× stocks in 100% DMSO. Kds were determined using an 11-point 3-fold compound dilution series with three DMSO control points. […] The compounds were then diluted directly into the assays such that the final concentration of DMSO was 0.9%. All reactions were performed in polypropylene 384-well plate. Each was a final volume of 0.02 ml. […] The kinase concentration in the eluates was measured by qPCR.
Binding Constants (Kds). Binding constants (Kds) were calculated with a standard dose-response curve using the Hill equation: Response=Background+Signal−Background 1+(KdHill Slope/DoseHill Slope). The Hill Slope was set to −1. Curves were fitted using a non-linear least square fit with the Levenberg-Marquardt algorithm.

KIT D816V [2] = molecular target: KIT D816V (Homo sapiens (Human), UniProt P10721, D816V); assay: KIT D816V biochemical enzymatic activity assay (EZReader 2 mobility shift); conditions: at APPKM for ATP, 20 μM ATP, 60 minutes
Chain of KIT D816V (Homo sapiens (Human), UniProt P10721, D816V) (P10721 26-976 D816V): as the sequence (P10721 26-976) above, with D791V counted along it
Source text: as §1, §2, §3, §4
The plate was read on a Caliper EZReader 2.

UT-7 cells = assay: UT-7 cell proliferation with SCF stimulation as a measure of wild-type KIT activity (CellTiter-Glo); format: cell-based, human; conditions: SCF-stimulated UT-7 cell proliferation
Source text: UT-7 Cell Proliferation with SCF Stimulation Assay as a Measure of Wild-Type KIT Activity
UT-7 cells are human megakaryoblastic leukemia cell lines that can be grown in culture with dependence on granulocyte macrophage colony stimulating factor (GM-CSF) or stem cell factor (SCF). UT-7 cells respond to SCF stimulation by activation of the KIT receptor tyrosine kinase and subsequent downstream signaling that can support cell growth and proliferation (Kuriu et al, 1999; Komatsu et al, 1991; Sasaki et al, 1995). Test compounds were assayed for their ability to inhibit SCF-stimulated proliferation of UT-7 cells.
Inhibition of SCF-stimulated UT-7 cell proliferation was assessed using the CellTiter-Glo assay that quantifies the amount of adenosine triphosphate (ATP) present, which is a readout of metabolically active cells and is directly proportional to the number of viable cells in culture. The ability of test compounds to inhibit SCF-stimulated UT-7 cell proliferation was determined using a 10-point dose curve ranging from 25 μM to 95.4 pM of test compound.
UT-7 cells were maintained in IMDM supplemented with 10% FBS, 5 ng/mL GM-CSF and 100 units/mL Penicillin-Streptomycin and grown in a 37° C. humidified tissue culture incubator. UT-7 cells were washed once with serum free, GM-CSF free IMDM. Cells were then resuspended in IMDM containing 4% FBS and 50 ng/mL SCF and seeded at 2500 cells per well in a volume of 22 μL in a 384-well microplate. A 10-point dose concentration series of test compounds (25.0 μM to 95.4 pM) were then added to the cells in a volume of 3.1 μL to each well (0.25% DMSO final concentration) and placed in a tissue culture incubator (5% CO2, 37° C.) for 72 hours. After 3-days with test compound, CellTiter-Glo reagent was prepared fresh and 25 μL of reagent was added to each well. The plate was mixed by shaking for 10 minutes at RT at 300 rpm on a plate shaker. The plate was read on an EnVision plate reader using the Ultra Sensitive Luminescence protocol for a 384-well plate.

Chain of KIT D816V (Homo sapiens (Human), UniProt P10721, D816V/V560G) (P10721 26-976 V560G/D816V): as the sequence (P10721 26-976) above, with V535G, D791V counted along it

Row | SMILES | IC50 (KIT D816V [1]) | IC50 (PDGFRα D842V) | Kd (wt KIT kinase) | IC50 (KIT D816V [2]) | IC50 (UT-7 cells; Homo sapiens, UT7, 72 h) | IC50 (UT-7 cells; 72 hours)
1 | C[C@](N)(c1ccc(F)cc1)c1cnc(N2CCN(c3ncnn4cc(-c5cnn([C@@H]6COC[C@@H]6O)c5)cc34)CC2)nc1 (single isomer, unassigned) [Compound 17] | 4.6 to 10 nM | ≤ 0.3 nM | < 10 nM | 0.31 to 1 nM | 90.1 to 150 nM | 
2 | C[C@@H](O)Cn1cc(-c2cc3c(N4CCN(c5ncc([C@@](C)(N)c6ccc(F)cc6)cn5)CC4)ncnn3c2)cn1 [Compound 3, (R)1-{4-[4-(4-{5-[(S)-1-Amino-1-(4-fluoro-phenyl)-ethyl]-pyrimidin-2-yl}-piperazin-1-yl)-pyrrolo[2,1-f][1,2,4]triazin-6-yl]-pyrazol-1-yl}-propan-2-ol] |  |  |  |  | < 90 nM | 
3 | C[C@](N)(c1ccc(F)cc1)c1cnc(N2CCN(c3ncnn4cc(-c5cnn([C@@H]6CC[C@H]6O)c5)cc34)CC2)nc1 (single isomer, unassigned) [Compound 22] | < 4.5 nM | ≤ 0.3 nM | < 10 nM | ≤ 0.3 nM | 90.1 to 150 nM | 
4 | C[C@](N)(c1ccc(F)cc1)c1cnc(N2CCN(c3ncnn4cc(-c5cnn(C6COC6)c5)cc34)CC2)nc1 [Compound 7, (S)-1-(4-Fluorophenyl)-1-(2-(4-(6-(1-(oxetan-3-yl)-1H-pyrazol-4-yl)pyrrolo[2,1-f][1,2,4]triazin-4-yl)piperazin-1-yl)pyrimidin-5-yl)ethan-1-amine] |  | ≤ 0.3 nM |  |  | 90.1 to 150 nM | 
5 | C[C@](N)(c1ccc(F)cc1)c1cnc(N2CCN(c3ncnn4cc(-c5cnn([C@H]6COC[C@H]6O)c5)cc34)CC2)nc1 (single isomer, unassigned) [Compound 20] | < 4.5 nM | ≤ 0.3 nM | < 10 nM | ≤ 0.3 nM | 90.1 to 150 nM | 
6 | C[C@](N)(c1ccc(F)cc1)c1cnc(N2CCN(c3ncnn4cc(-c5cnn(CC6(O)CC6)c5)cc34)CC2)nc1 [Compound 12, (S)-1-((4-(4-(4-(5-(1-Amino-1-(4-fluorophenyl)ethyl)pyrimidin-2-yl)piperazin-1-yl)pyrrolo[2,1-f][1,2,4]triazin-6-yl)-1H-pyrazol-1-yl)methyl)cyclopropan-1-ol] |  | ≤ 0.3 nM |  |  | 90.1 to 150 nM | 
7 | C[C@](N)(c1ccc(F)cc1)c1cnc(N2CCN(c3ncnn4cc(-c5cnn([C@H]6C[C@H](O)C6)c5)cc34)CC2)nc1 [Compound 11, trans-3-{4-[4-(4-{5-[1-Amino-1-(4-fluoro-phenyl)-ethyl]-pyrimidin-2-yl}-piperazin-1-yl)-pyrrolo[2,1-f][1,2,4]triazin-6-yl]-pyrazol-1-yl}-cyclobutanol] | 4.6 to 10 nM | ≤ 0.3 nM | < 10 nM | ≤ 0.3 nM |  | 90.1 to 150 nM
8 | CC(C)(O)Cn1cc(-c2cc3c(N4CCN(c5ncc([C@@](C)(N)c6ccc(F)cc6)cn5)CC4)ncnn3c2)cn1 [Compound 1, (S)-1-(4-(4-(4-(5-(1-Amino-1-(4-fluorophenyl)ethyl)pyrimidin-2-yl)piperazin-1-yl)pyrrolo[2,1-f][1,2,4]triazin-6-yl)-1H-pyrazol-1-yl)-2-methylpropan-2-ol] |  |  |  |  | 150 to 200 nM | 
9 | C[C@@H](CO)n1cc(-c2cc3c(N4CCN(c5ncc([C@@](C)(N)c6ccc(F)cc6)cn5)CC4)ncnn3c2)cn1 [Compound 6, (S)-2-(4-(4-(4-(5-((S)-1-amino-1-(4-fluorophenyl)ethyl)pyrimidin-2-yl)piperazin-1-yl)pyrrolo[2,1-f][1,2,4]triazin-6-yl)-1H-pyrazol-1-yl)propan-1-ol] |  |  |  |  | < 90 nM | 
10 | C[C@](N)(c1ccc(F)cc1)c1cnc(N2CCN(c3ncnn4cc(-c5cnn([C@H]6COC[C@@H]6O)c5)cc34)CC2)nc1 (single isomer, unassigned) [Compound 18] | < 4.5 nM | ≤ 0.3 nM | < 10 nM | ≤ 0.3 nM | 90.1 to 150 nM | 
11 | CC(C)(CO)n1cc(-c2cc3c(N4CCN(c5ncc([C@@](C)(N)c6ccc(F)cc6)cn5)CC4)ncnn3c2)cn1 [Compound 2, (S)-2-(4-(4-(4-(5-(1-amino-1-(4-fluorophenyl)ethyl)pyrimidin-2-yl)piperazin-1-yl)pyrrolo[2,1-f][1,2,4]triazin-6-yl)-1H-pyrazol-1-yl)-2-methylpropan-1-ol] |  |  |  |  | 150 to 200 nM | 
12 | C[C@H](CO)n1cc(-c2cc3c(N4CCN(c5ncc([C@@](C)(N)c6ccc(F)cc6)cn5)CC4)ncnn3c2)cn1 [Compound 5, (R)-2-(4-(4-(4-(5-((S)-1-Amino-1-(4-fluorophenyl)ethyl)pyrimidin-2-yl)piperazin-1-yl)pyrrolo[2,1-f][1,2,4]triazin-6-yl)-1H-pyrazol-1-yl)propan-1-ol] |  |  |  |  | < 90 nM | 
13 | C[C@H](O)Cn1cc(-c2cc3c(N4CCN(c5ncc([C@@](C)(N)c6ccc(F)cc6)cn5)CC4)ncnn3c2)cn1 [Compound 9] |  | ≤ 0.3 nM |  |  | 90.1 to 150 nM | 
14 | C[C@](N)(c1ccc(F)cc1)c1cnc(N2CCN(c3ncnn4cc(-c5cnn(C6(CO)CC6)c5)cc34)CC2)nc1 [Compound 13, (S)-(1-(4-(4-(4-(5-(1-Amino-1-(4-fluorophenyl)ethyl)pyrimidin-2-yl)piperazin-1-yl)pyrrolo[2,1-f][1,2,4]triazin-6-yl)-1H-pyrazol-1-yl)cyclopropyl)methanol] |  | ≤ 0.3 nM |  |  | 90.1 to 150 nM | 
